Measurements as given in patent US12396948B2, “Pharmaceutical compositions for the treatment of ophthalmic conditions” (Rhodes Technologies, priority 2017, dated 2025).
Structures can show the parent of a compound that is named as a salt.

Legend:
Female C57BL/6J mice [1] = experiment: Conscious mouse IOP after single topical drop (Example 57); type: in vivo; settings: for maximal IOP effect: conscious mice
Experimental: Female C57BL/6J mice (Jackson Laboratories, Bar Harbor, ME; age 2-3 months) were kept in 12 h light/12 h dark conditions (lights on 0600 h) and fed with standard chow. All experimental procedures were conducted in accordance with the ARVO Statement for the Use of Animals in Ophthalmic and Vision Research, and the University of North Texas Health Science Center Institutional Animal Care and Use Committee Regulations and Guidelines.
Dronabinol ophthalmic solutions (0.05% and 0.5%) and the corresponding vehicle were provided by Rhodes Technologies. Timolol maleate 0.5% (Hi. Tech Pharmacal) was purchased. Formulation AE10C-B was prepared as described above (Table 44).
The 2-tailed unpaired Student's t-test was used for comparison of results at the same time point between two study groups. P values of less than 0.05 were considered significant. All data are presented as mean±SEM.

mouse = experiment: Repeated dosing study on IOP lowering effects (Example 58); type: in vivo; settings: for maximum IOP reduction: twice daily 7 days, vs contralateral untreated eye
Experimental: Study protocol is similar to Dose-Response Relationship Study described above, except that the animals are divided into three groups (as specified below). A single 5 μL drop was instilled topically onto one eye of each mouse twice daily starting at time 0 of Day 1.
The contralateral eye was untreated. IOP of both eyes was measured at −1 h (baseline), 2 h, 4 h, 6 h, 8 h, 12 h. […] In addition to IOP measurement, animals were evaluated for possible ocular and gross systemic adverse effects. • Group 1: Vehicle • Group 2: Dronabinol (optimal concentration determined in studies above) • Group 3: Timolol (0.5%) Results: The results are presented in FIGS. 28 and 29, which illustrate comparison of IOP effects of the Dronabinol formulations, vehicle, and Timolol. The formulations were administered twice daily at 8-9 AM (Time 0) and 4-5 PM starting Day 1 till Day 7. The upper panel reports IOP values at the indicated time points after dosing (IOP at Time 0 was obtained immediately prior to the morning dosing) of Days 1, 4, and 7. The bottom panel represents % IOP change compared to the contralateral untreated eye, whose IOP defines 100%. Data are shown as mean±SEM.

Female C57BL/6J mice [2] = experiment: Mouse aqueous humor dynamics by constant flow infusion (Example 57); settings: 0.5% emulsion
From the text: Briefly, immediately following bilateral tonometry in anesthetized animals, both eyes received a drop of proparacaine HCl (0.5%) for topical anesthesia, and both anterior chambers were cannulated with a 30G needle (one per eye) connected to previously calibrated BLPR-2 flow-through pressure transducers (World Precision Instruments (WPI), Sarasota, FL) for the continuous determination of pressure. A drop of PBS was also given to each eye topical ocular to prevent corneal drying. The opposing end of each transducer was connected to a 3-way valve, which in turn was connected to: (a) a 50 FAL glass microsyringe (Hamilton Company, Reno, NV) filled with sterile PBS loaded into an SP101i microdialysis infusion pump (WPI), and (b), an open ended, variable height manometer. Signals from the pressure transducers were passed via a TBM4M Bridge Amplifier (WPI) and a Lab-Trax analog-to-digital converter (WPI) to a computer. Data were recorded using LabScribe2 software (WPI).
The manometer was closed to the circuit and eyes were infused at a flow rate of 0.1 μL/min. When pressure had stabilized, pressure measurements were recorded, and flow rate was increased sequentially to 0.2, 0.3, 0.4, and 0.5 μL/min. Three stabilized pressures (spaced 5 min apart) at each flow rate were recorded. Aqueous outflow facility (C) in each eye of each animal was calculated as the reciprocal of the slope of a plot of Mean Stabilized Pressure as ordinate against Flow Rate as abscissa.
Episcleral venous pressure (Pe) was estimated using the blood reflux method. Briefly, following anterior chamber cannulation, the manometer was opened to the circuit, manometric pressure was set to equal pre-cannulation (anesthetized) TOP, and then manometric pressure was lowered incrementally (at the rate of 1 mmHg/min) until the point at which blood was seen (using a dissection microscope under 30× magnification) to reflux into the scleral collector channels and then Schlemm's canal. The manometric pressure at which Schlemm's canal was seen to fill with refluxed blood was regarded as Pe.
After completion of the above measurements, animals were euthanized by anesthetic overdose and, 20 min following euthanasia, C was measured again. Thus values for Clive and C dead were obtained. Following euthanasia, both aqueous humor formation rate (Fin) and Pe are equal to zero, and via algebraic rearrangement of the modified Goldmann equation {IOP=[(Fin−Fu)/C]+Pe}, values for Fu were thus calculated for each individual perfusion rate and corresponding TOP. The mean of those resultant 5 values was reported as Fu.
Aqueous Humor Formation Rate (Fin) was calculated for each eye by further algebraic rearrangement of the modified Goldmann equation: Fin=[C×(IOP−Pe)]+Fu.

[3] = cited from earlier work
[4] = Impurity profile of antioxidant excipient solutions (Example 42); type: physicochemical; settings: for Impurity (% Area) Total / Impurity (% w/w) Total: excipient solution; for Impurity (% w/w) Total: converted to levels corresponding to antioxidant concentrations in the dronabinol formulations

In the case of `CCCCCc1cc(O)c2c(c1)OC(C)(C)[C@@H]1CCC(C)=C[C@@H]21` [Dronabinol, (−)-trans-Δ^9-tetrahydrocannabinol], the “IOP reduction at 24 h after treatment” value (Female C57BL/6J mice [1]; 0.05% and 0.5%, single 5 μL drop) is reported as “still significant”, the “ocular, systemic, or behavioral adverse effects” value (Female C57BL/6J mice [1]; 0.05% and 0.5%, single topical drop) is reported as “No ocular, systemic, or behavioral adverse effects were observed” and the “maximal IOP effect” value (Female C57BL/6J mice [1]; 0.05% ophthalmic solution, single 5 μL drop, @ 6 h) is reported as −22.3%. For the same compound, the “maximal IOP effect” value (Female C57BL/6J mice [1]; 0.5% ophthalmic solution, single 5 μL drop, @ 2 h) was −25.8%, the “maximum IOP reduction” value (mouse; 0.005% formulation) was 19.8% and the “maximum IOP reduction” value (mouse; 0.015% formulation) was 25.7%. For the same compound, the “maximum IOP reduction” value (mouse; 0.05% formulation) was 33.2%, the duration of action (mouse; 0.05%, lowered baseline IOP at Days 4 & 7) was > 16 h and the “tachyphylaxis or adverse effect” value (mouse; 7-day twice daily dosing, 0.005%, 0.015%, 0.05%) was “No tachyphylaxis or adverse effect was observed”. For the same compound, the ocular adverse effect (Female C57BL/6J mice [2]) was “No ocular adverse effect was observed”, the “IOP lowering in anesthetized animals” value (Female C57BL/6J mice [2]; 2 h after treatment) was 29.9% and the “aqueous humor formulation rate, change” value (Female C57BL/6J mice [2]; 2 h after treatment) was −21.6%. For the same compound, the “aqueous outflow facility, increase” value (Female C57BL/6J mice [2]; 2 h after treatment) was 54.5% and the “episcleral venous pressure, change” value (Female C57BL/6J mice [2]; 2 h after treatment) was −26.8%.

In the case of `O=C(O)/C=C/C(=O)O` [Fumaric Acid], the “Solub. in Water” value [3] is given as 0.007 mg/L.

In the case of `O=S([O-])([O-])=S.[Na+].[Na+]` [Sodium Thiosulfate], the “Impurity (% Area) Total” value [4] is reported as 0.0 % Area and the “Impurity (% w/w) Total” value [4] is reported as 0.0 % w/w.

For `COc1ccc(O)c(C(C)(C)C)c1` [Butylated Hydroxyanisole (BHA)], the “Solub. in Water (in words)” value [3] is listed as “Insoluble”.

In the case of `O=S([O-])S(=O)(=O)[O-].[K+].[K+]` [Potassium Metabisulfite], the “Solub. in Water” value [3] is given as 49.5 g/100 mL water.

In the case of `O=S([O-])S(=O)(=O)[O-].[Na+].[Na+]` [Sodium Metabisulfite], the “Solub. in Water (in words)” value [3] is given as “Freely”.

In the case of Vitamin E, the “Solub. in Water (in words)” value [3] is given as “Insoluble”.

For `OCC(O)CS` (centres unmarked) [Monothioglycerol], the “Solub. in Water (in words)” value [3] is listed as “Slightly”.

For `CCCCCCCCCCCCCCCC(=O)OC[C@H](O)[C@H]1OC(=O)C(O)=C1O` [Ascorbyl Palmitate], the “Solub. in Water” value [3] is given as 0.07 mg/L.

In the case of `O=C(O)CC(O)C(=O)O` (centres unmarked) [Malic Acid], the “Solub. in Water” value [3] is listed as 59.2 g/100 mL water.

In the case of `O=S([O-])[O-].[Na+].[Na+]` [Sodium Sulfite], the “Impurity (% Area) Total” value [4] is reported as 0.0 % Area and the “Impurity (% w/w) Total” value [4] is reported as 0.0 % w/w.

For `CCCOC(=O)c1cc(O)c(O)c(O)c1` [Propyl Gallate], the “Solub. in Water” value [3] is given as 0.35 g/100 mL water.

In the case of `CC(C)(C)NC[C@H](O)COc1nsnc1N1CCOCC1` [Timolol, Timolol maleate], the “effect on mouse IOP” value (Female C57BL/6J mice [1]; 0.5%, positive control) is reported as “lowered mouse TOP as expected”, the “prolonged IOP reduction (baseline IOP at Days 4 & 7)” value (mouse; 0.5%, twice daily) is reported as “did not produce this prolonged IOP reduction” and the “maximum IOP reduction” value (mouse; 0.5%) is reported as 35.1%.

In the case of `O=S=O` [Sulfur Dioxide], the “Solub. in Water” value [3] is given as 8.5 g/100 mL water.

In the case of `CC(=O)OC/C=C(C)/C=C/C=C(C)/C=C/C1=C(C)CCCC1(C)C` [Vitamin A], the “RRT 0.83 in testing of excipients” value ([4]; 0.5% Vitamin A) is reported as ~0.5 % w/w.
